Test results taken from patent US20220289794A1, “SYNTHETIC ANTIMICROBIAL PEPTIDES” (priority 2019, published 2022).

Key:
[1] = test system: Enterococcus faecium ATCC 700221; conditions: E. faecium ATCC 700221
[2] = test system: Escherichia coli (ATCC 25922); conditions: E. coli ATCC 25922
[3] = test system: Streptococcus pneumoniae ATCC 49619; conditions: S. pneumoniae ATCC 49619
[4] = test system: Streptococcus pneumoniae ATCC 51938; conditions: S. pneumoniae ATCC 51938
[5] = test system: Pseudomonas aeruginosa (ATCC 27883); conditions: P. aeruginosa ATCC 27883
[6] = test system: A. baumannii (ATCC BAA-1605); experiment: Broad-spectrum activity against Gram-Negative bacteria (MIC); format: cell-based; conditions: Table 16, Gram-negative panel
[7] = test system: Enterococcus faecalis ATCC 29212; conditions: E. faecalis ATCC 29212
[8] = test system: Methicillin-resistant Staphylococcus aureus MRSA (ATCC BAA-1556); conditions: MRSA ATCC BAA-1556
[9] = test system: P. aeruginosa (ATCC BAA-1744); experiment: Broad-spectrum activity against Gram-Negative bacteria (MIC); format: cell-based; conditions: Table 16, Gram-negative panel
S. aureus ATCC 29213 = conditions: S. aureus ATCC 29213
[10] = test system: Enterococcus faecium ATCC 27270; conditions: E. faecium ATCC 27270
[11] = test system: Klebsiella pneumoniae ATCC 13883; conditions: Table 16, Gram-negative panel
[12] = test system: P. aeruginosa (ATCC 10145); experiment: Broad-spectrum activity against Gram-Negative bacteria (MIC); format: cell-based; conditions: Table 16, Gram-negative panel
E. coli (ATCC BAA-2452) = experiment: as above; format: cell-based; conditions: Table 16, Gram-negative panel
[13] = test system: Klebsiella pneumoniae (ATCC BAA-1705); conditions: Table 16, Gram-negative panel
B. cereus (ATCC-13061) = experiment: Broad-spectrum activity against Gram-Positive bacteria (MIC); format: cell-based; set-up: unit not given here
B. subtilis (ATCC-6633) = experiment: as above; format: cell-based; set-up: unit not given here
[14] = test system: Enterococcus faecalis ATCC 51575; conditions: E. faecalis ATCC 51575

Row | Substance | Broad-spectrum activity E. faecium (ATCC 700221) [1] | MIC E. coli ATCC 25922 [2] | Broad-spectrum activity S. pneumoniae (ATCC 49619) [3] | Broad-spectrum activity S. pneumoniae (ATCC 51938) [4] | MIC P. aeruginosa ATCC 27883 [5] | MIC A. baumannii (ATCC BAA-1605) [6] | Broad-spectrum activity E. faecalis (ATCC 29212) [7] | MIC MRSA ATCC BAA-1556 [8] | MIC P. aeruginosa (ATCC BAA-1744) [9] | MIC S. aureus ATCC 29213 (S. aureus ATCC 29213) | Broad-spectrum activity E. faecium (ATCC 27270) [10] | MIC K. pneumonia (ATCC 13883) [11] | MIC P. aeruginosa (ATCC 10145) [12] | MIC E. coli (ATCC BAA-2452) (E. coli (ATCC BAA-2452)) | MIC K. pneumonia (ATCC BAA-1705) [13] | Broad-spectrum activity B. cereus (ATCC-13061) (B. cereus (ATCC-13061)) | Broad-spectrum activity B. subtilis (ATCC-6633) (B. subtilis (ATCC-6633)) | Broad-spectrum activity E. faecalis (ATCC 51575) [14]
1 | c[arg-Arg-Arg-Arg-Dip-Trp-Dip] [IFX-094] | 12.5 | 12.5 µg/mL | 25 | 25 | 6.2 µg/mL | 12.5 µg/mL | 12.5 | 3.1 µg/mL | 25 µg/mL | 3.1 µg/mL | 6.2 | 50 µg/mL | 50 µg/mL | 12.5 µg/mL | 12.5 µg/mL | 6.2 | 3.1 | 12.5
2 | c[Arg-arg-Arg-arg-dip-Trp-dip] [IFX-097] | 6.2 | 12.5 µg/mL | 50 | 25 | 12.5 µg/mL | 12.5 µg/mL | 6.2 | 3.1 µg/mL | 50 µg/mL | 3.1 µg/mL | 3.1 | > 50 µg/mL | 50 µg/mL | 25 µg/mL | 25 µg/mL | 6.2 | 1.5 | 12.5
3 | c[Arg-Arg-Arg-Arg-dip-Trp-Dip] [IFX-090] | 6.2 | 12.5 µg/mL | 25 | 12.5 | 12.5 µg/mL | 12.5 µg/mL | 6.2 | 3.1 µg/mL | 25 µg/mL | 3.1 µg/mL | 3.1 | 50 µg/mL | 25 µg/mL | 12.5 µg/mL | 25 µg/mL | 6.2 | 1.5 | 12.5
